From patent US20240287138A1, “CYCLIC PEPTIDES FOR INHIBITING TNF RECEPTOR 1 ACTIVITY” (Merck Sharp & Dohme LLC, priority 2023, published 2024)
pIC50, pKd: −log10 of the molar value. Numbered stars: 1 amine (or outer) side, 2 acyl side, 3 side chain; on linkers, the order of the positions; unused ones are H or OH. Bridge positions count the residues as written; N and C are the ends. Square brackets hold non-standard residues; d marks the D form. Peptide text beside a SMILES is read from it. * marks the point of attachment. Trp(βS-Me,7-OMe) = COc1cccc2c([C@H](C)[C@H](N)C(=O)O)c[nH]c12; Ala(1-bicyclo(1.1.1)pentyl) = N[C@@H](CC12CC(C1)C2)C(=O)O; Phe(3-CH2NH2) = O=C([C@H](Cc1cccc(CN[*:3])c1)N[*:1])[*:2]; Phe(4-SO2NH2) = N[C@@H](Cc1ccc(S(N)(=O)=O)cc1)C(=O)O; Phe(2-F,4-COOH) = N[C@@H](Cc1ccc(C(=O)O)cc1F)C(=O)O; Trp(4-Cl) = N[C@@H](Cc1c[nH]c2cccc(Cl)c12)C(=O)O; Trp(7-CN) = N#Cc1cccc2c(C[C@H](N)C(=O)O)c[nH]c12; Trp(7-Cl) = N[C@@H](Cc1c[nH]c2c(Cl)cccc12)C(=O)O; X15 = C[C@H](c1ccc(O)cc1)[C@H](N[*:1])C(=O)[*:2]; Phe(4-CONH2) = NC(=O)c1ccc(C[C@H](N)C(=O)O)cc1; Phe(4-COOH) = N[C@@H](Cc1ccc(C(=O)O)cc1)C(=O)O; Trp(7-aza) = N[C@@H](Cc1c[nH]c2ncccc12)C(=O)O; Phe(4-CH2NH2) = NCc1ccc(C[C@H](N)C(=O)O)cc1; dPro(trans-4-F) = O=C(O)[C@H]1C[C@H](F)CN1; Pip(5R-OH) = O=C(O)[C@@H]1CC[C@@H](O)CN1; αMeW = C[C@](N)(Cc1c[nH]c2ccccc12)C(=O)O; X1 = O=C([C@@H]1CC[C@H](N[*:1])C1)[*:2]; 4Pal = N[C@@H](Cc1ccncc1)C(=O)O; NMeE = CN[C@@H](CCC(=O)O)C(=O)O; dHyp = O=C(O)[C@H]1C[C@H](O)CN1; NMeN = CN[C@@H](CC(N)=O)C(=O)O; αMeS = C[C@](N)(CO)C(=O)O; Carboxymethyl = O=C(O)C*; Nle = CCCC[C@H](N)C(=O)O; Sar = CNCC(=O)O

What follows are compounds tested against T1, human soluble TNFR1 (sTNFR1) (Homo sapiens, UniProt P19438) (assay: Human sTNFR1-peptide displacement assay (LanthaScreen Eu TR-FRET binding assay)).
T1 construct: made in house; host or cells: Sf21 (baculovirus)
T1 sequence (P19438 with tags, fused parts or gaps): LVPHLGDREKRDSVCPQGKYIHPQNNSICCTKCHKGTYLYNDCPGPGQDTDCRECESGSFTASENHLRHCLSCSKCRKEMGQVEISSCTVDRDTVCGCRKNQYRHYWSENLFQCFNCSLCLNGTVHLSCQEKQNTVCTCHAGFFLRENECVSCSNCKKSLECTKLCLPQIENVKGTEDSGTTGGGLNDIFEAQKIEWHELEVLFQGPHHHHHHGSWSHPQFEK
In short: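 Readout is the 665/615 nm TR-FRET ratio (Eu anti-His donor, streptavidin-Alexa647 acceptor), normalized to DMSO and saturating displacer, fit by Morrison-based five-parameter logistic for Kd^app. His-tagged sTNFR1 (1-211) prebound to 100 nM biotinylated peptide SEQ ID NO.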
For `CCCC[C@@H]1NC(=O)[C@@H]2CC[C@@H](C2)NC(=O)[C@H]([C@@H](C)c2c[nH]c3c(OC)cccc23)NC(=O)CN(C)C(=O)[C@H](Cc2ccc(C(=O)O)cc2)NC(=O)[C@H](Cc2ccc(C(N)=O)cc2)NC(=O)[C@](C)(CO)NC(=O)[C@H](Cc2c[nH]c3c(Cl)cccc23)NC(=O)[C@H](Cc2ccncc2)NC(=O)[C@H](CC(N)=O)NC(=O)[C@H]2C[C@H](F)CN2C(=O)[C@H](Cc2c[nH]c3ccccc23)NC(=O)[C@@H]2CC[C@@H](O)CN2C(=O)[C@H](Cc2ccncc2)NC1=O` [SEQ ID NO. 101] (cyclo([4Pal][Trp(7-Cl)][αMeS][Phe(4-CONH2)][Phe(4-COOH)][Sar][Trp(βS-Me,7-OMe)][X1][Nle][4Pal][Pip(5R-OH)]W[dPro(trans-4-F)]N)), the pKd was 10.30.
In the case of `CN1CC(=O)N[C@@H](CC(N)=O)C(=O)N[C@@H](Cc2ccc(O)cc2)C(=O)N[C@@H](Cc2c[nH]c3ccccc23)C(=O)N[C@@H](CO)C(=O)N[C@@H](Cc2ccc(O)cc2)C(=O)N[C@@H](Cc2ccc(O)cc2)C(=O)N(C)CC(=O)N[C@@H](Cc2c[nH]c3ccccc23)C(=O)N[C@H](C(=O)NCC(=O)N[C@@H](CCC(=O)O)C(=O)N[C@@H](CCC(=O)O)C(N)=O)CSCC(=O)N[C@@H](Cc2ccccc2)C(=O)N[C@@H](Cc2ccc(O)cc2)C(=O)N[C@@H](CO)C(=O)N[C@@H](Cc2c[nH]c3ccccc23)C1=O` [SEQ ID NO. 289] ({CH2CO}-FYSW[Sar]NYWSYY[Sar]WCGEE-NH2; thioether N-14), the pIC50 was 8.01.
Work on `CCCC[C@@H]1NC(=O)CSC[C@@H](C(N)=O)NC(=O)[C@H]([C@@H](C)c2c[nH]c3c(OC)cccc23)NC(=O)CN(C)C(=O)[C@H](Cc2ccc(O)cc2)NC(=O)[C@H](Cc2ccc(C(=O)O)cc2)NC(=O)[C@](C)(CO)NC(=O)[C@H](Cc2c[nH]c3c(Cl)cccc23)NC(=O)[C@H](Cc2ccncc2)NC(=O)[C@H](CC(N)=O)NC(=O)[C@H](CCC(=O)O)N(C)C(=O)[C@H](Cc2c[nH]c3ncccc23)NC(=O)[C@H](CO)NC(=O)[C@H]([C@H](C)c2ccc(O)cc2)NC1=O` [SEQ ID NO. 243] ({CH2CO}-[Nle][X15]S[Trp(7-aza)][NMeE]N[4Pal][Trp(7-Cl)][αMeS][Phe(4-COOH)]Y[Sar][Trp(βS-Me,7-OMe)]C-NH2; thioether N-14) yielded a pKd of 9.31.
With `CCCC[C@@H]1NC(=O)[C@@H]2CC[C@@H](C2)NC(=O)[C@H]([C@@H](C)c2c[nH]c3c(OC)cccc23)NC(=O)CN(C)C(=O)[C@H](Cc2ccc(C(=O)O)cc2F)NC(=O)[C@H](Cc2ccc(S(N)(=O)=O)cc2)NC(=O)[C@](C)(CO)NC(=O)[C@H](Cc2c[nH]c3c(C#N)cccc23)NC(=O)[C@H](Cc2ccc(C(=O)O)cc2F)NC(=O)[C@H](CC(N)=O)NC(=O)[C@H]2C[C@H](OCC(=O)O)CN2C(=O)[C@H](Cc2c[nH]c3ncccc23)NC(=O)[C@@H]2CC[C@@H](O)CN2C(=O)[C@H](Cc2ccncc2)NC1=O` [SEQ ID NO. 134] (cyclo([4Pal][Pip(5R-OH)][Trp(7-aza)][dHyp](Carboxymethyl)N[Phe(2-F,4-COOH)][Trp(7-CN)][αMeS][Phe(4-SO2NH2)][Phe(2-F,4-COOH)][Sar][Trp(βS-Me,7-OMe)][X1][Nle])) the pKd was 10.22.
With `CCCC[C@@H]1NC(=O)CSC[C@@H](C(N)=O)NC(=O)[C@](C)(Cc2c[nH]c3ccccc23)NC(=O)CN(C)C(=O)[C@H](Cc2ccc(O)cc2)NC(=O)[C@H](Cc2ccc(OCC(=O)O)cc2)NC(=O)[C@](C)(CO)NC(=O)[C@H](Cc2c[nH]c3c(Cl)cccc23)NC(=O)[C@H](Cc2ccncc2)NC(=O)[C@H](CC(N)=O)NC(=O)[C@H](CCC(=O)O)N(C)C(=O)[C@H](Cc2c[nH]c3ncccc23)NC(=O)[C@H](CO)NC(=O)[C@H](Cc2ccc(CN)cc2)NC1=O` [SEQ ID NO. 283] ({CH2CO}-[Nle][Phe(4-CH2NH2)]S[Trp(7-aza)][NMeE]N[4Pal][Trp(7-Cl)][αMeS]Y(Carboxymethyl)Y[Sar][αMeW]C-NH2; thioether N-14) the pIC50 was 8.84.
`CN1CC(=O)N[C@@H](Cc2c[nH]c3cccc(Cl)c23)C(=O)N[C@H](C(N)=O)CSCC(=O)N[C@@H](CC23CC(C2)C3)C(=O)N[C@@H](Cc2cccc(CN)c2)C(=O)N[C@@H](CO)C(=O)N[C@@H](Cc2c[nH]c3c(Cl)cccc23)C(=O)N2CCC[C@@H]2C(=O)N(C)[C@@H](CC(N)=O)C(=O)N[C@@H](Cc2ccc(C(=O)O)cc2)C(=O)N[C@@H](Cc2c[nH]c3c(Cl)cccc23)C(=O)N[C@@](C)(CO)C(=O)N[C@@H](Cc2ccc(C(=O)O)cc2)C(=O)N[C@@H](Cc2cccc(CN)c2)C1=O` [SEQ ID NO. 222] ({CH2CO}-[Ala(1-bicyclo(1.1.1)pentyl)][Phe(3-CH2NH2)]S[Trp(7-Cl)][dP][NMeN][Phe(4-COOH)][Trp(7-Cl)][αMeS][Phe(4-COOH)][Phe(3-CH2NH2)][Sar][Trp(4-Cl)]C-NH2; thioether N-14) was tested, and the pIC50 was 8.76.
